Measurements reported in EPA's ToxRefDB 2.

Key:
rat [1] = conditions: Multigenerational reproductive toxicity study, sprague dawley, Oral, Feed, dose end: 2 generation
dog [2] = conditions: Chronic toxicity; beagle; Oral; Capsule; dose end: 12 month; group: systemic; systemic / in life observation / body weight / body weight + systemic / in life observation / clinical signs / emaciation + systemic / in …
rat [3] = conditions: Neurotoxicity screening battery; other; Oral; Feed; dose end: 11 month; group: cannot be grouped; systemic / in life observation / body weight / body weight
rat [4] = conditions: Prenatal developmental toxicity study, sprague dawley, Oral, Gavage/Intubation, dose end: 15 GD
hamster = conditions: Subchronic oral toxicity in rodents, golden syrian, Feed, dose end: 90 day, group: systemic
rat [5] = conditions: Subchronic oral toxicity in rodents, sprague-dawley, Feed, dose end: 90 day, group: systemic, systemic / organ weight / liver / absolute + systemic / organ weight / liver / relative to body weight + systemic / pathology microscopic / …
mouse [6] = conditions: Carcinogenicity; cd1; Oral; Feed; dose end: 78 week; group: systemic; systemic / in life observation / body weight / body weight + systemic / in life observation / body weight / body weight gain
rat [7] = conditions: Combined chronic toxicity/carcinogenicity; sprague dawley; Oral; Feed; dose end: 2 year; group: systemic; systemic / clinical chemistry / cholesterol / cholesterol + systemic / in life observation / body weight / body weight + systemic / in life …
dog [8] = conditions: Chronic toxicity; beagle; Oral; Gavage/Intubation; dose end: 6 month; group: systemic; systemic / in life observation / body weight / body weight + systemic / in life observation / clinical signs / pulse/pressure + systemic / …
rabbit [9] = conditions: Prenatal developmental toxicity study, new zealand white, Oral, Gavage/Intubation, dose end: 19 GD, group: maternal
rat [10] = conditions: Sub-acute repeat dose toxicity, sprague dawley, Oral, Gavage/Intubation, dose end: 28 day
rat [11] = conditions: Chronic toxicity, sprague dawley, Oral, Gavage/Intubation, dose end: 6 month, group: systemic
dog [12] = conditions: Sub-acute repeat dose toxicity; beagle; Oral; Gavage/Intubation; dose end: 1 month; group: systemic; systemic / clinical chemistry / cholesterol / cholesterol + systemic / in life observation / body weight / body weight + systemic / in life …
rat [13] = conditions: Fertility (Segment I), sprague dawley, Oral, Gavage/Intubation, dose end: 7 GD
rat [14] = conditions: Fertility (Segment I), sprague dawley, Oral, Gavage/Intubation, dose end: 7 GD; remark: listed apart in the source
rat [15] = conditions: Prenatal developmental toxicity study, sprague dawley, Oral, Gavage/Intubation, dose end: 17 GD
rat [16] = conditions: Prenatal developmental toxicity study, sprague dawley, Oral, Gavage/Intubation, dose end: 17 GD; remark: listed apart in the source
rat [17] = conditions: Fertility (Segment I), sprague dawley, Oral, Gavage/Intubation, dose end: 56 day
rabbit [18] = conditions: Prenatal developmental toxicity study; new zealand white; Oral; Gavage/Intubation; dose end: 19 GD; group: maternal; systemic / in life observation / body weight / body weight gain + systemic / in life observation / clinical signs / alopecia + systemic / in…
rabbit [19] = conditions: Prenatal developmental toxicity study, Oral, Gavage/Intubation, dose end: 18 GD
dog [20] = conditions: Chronic toxicity; beagle; Oral; Feed; dose end: 24 month; group: cholinesterase; cholinesterase / cholinesterase / cholinesterase / plasma cholinesterase (che)
rat [21] = conditions: Prenatal developmental toxicity study, other, Oral, Gavage/Intubation, dose end: 15 GD
dog [22] = conditions: Chronic toxicity, beagle, Oral, Feed, dose end: 52 week, group: cholinesterase
mouse [23] = conditions: Carcinogenicity; cd1; Oral; Feed; dose end: 104 week; group: cholinesterase; cholinesterase / cholinesterase / cholinesterase / cholinesterase (che)
[24] = group: offspring, systemic / in life observation / body weight / offspring (pup) weight
[25] = group: parental, systemic / pathology gross / kidney / discolored + systemic / pathology microscopic / kidney / casts granular + systemic / pathology …
[26] = group: developmental, systemic / in life observation / body weight / fetal weight
[27] = group: maternal, systemic / in life observation / body weight / body weight gain + systemic / in life observation / clinical signs / ataxia + systemic / in …
[28] = systemic / in life observation / body weight / body weight + systemic / in life observation / food consumption / food consumption
[29] = systemic / in life observation / body weight / body weight + systemic / in life observation / food consumption / food consumption + systemic…
[30] = systemic / in life observation / body weight / body weight gain + systemic / in life observation / food consumption / food consumption
[31] = systemic / in life observation / body weight / body weight gain + systemic / in life observation / food consumption / food consumption + …
[32] = group: maternal, reproductive / reproductive performance / estrous cycle / abnormal
[33] = group: systemic, systemic / in life observation / clinical signs / excessive or spontaneous vocalization + systemic / organ weight / salivary glands / …
[34] = systemic / clinical chemistry / alanine aminotransferase (alt/sgpt) / alanine aminotransferase (alt/sgpt) + systemic / clinical chemistry / …
[35] = systemic / in life observation / clinical signs / [other] + systemic / organ weight / uterus / absolute + systemic / organ weight / uterus…
[36] = group: maternal, reproductive / offspring survival early / litter viability other / total litter loss + reproductive / reproductive performance / …
[37] = group: parental, systemic / in life observation / body weight / body weight gain + systemic / in life observation / clinical signs / abnormal motor movement…
[38] = group: parental, systemic / in life observation / clinical signs / [other] + systemic / in life observation / body weight / body weight gain + systemic / in …
[39] = group: maternal, systemic / in life observation / body weight / body weight + systemic / in life observation / body weight / body weight gain + systemic / in…
[40] = group: developmental, developmental / developmental malformation / bone / incomplete ossification + systemic / in life observation / body weight / fetal weight
[41] = group: maternal, reproductive / reproductive performance / estrous cycle / corpora lutea + reproductive / reproductive performance / implantations / …
[42] = group: parental, systemic / in life observation / body weight / body weight gain + systemic / in life observation / clinical signs / [other] + systemic / in …
[43] = group: developmental, developmental / developmental malformation / bone / fused
[44] = group: maternal, systemic / in life observation / body weight / body weight gain + systemic / urinalysis / appearance and color / appearance and color
[45] = group: maternal, systemic / in life observation / body weight / body weight gain + systemic / urinalysis / appearance and color / appearance and color + …
[46] = group: developmental, developmental / developmental malformation / bone / delayed ossification
[47] = group: maternal, systemic / in life observation / clinical signs / hyperactivity
[48] = cholinesterase / cholinesterase / cholinesterase / plasma cholinesterase (che)
[49] = cholinesterase / cholinesterase / cholinesterase / plasma cholinesterase (che) + cholinesterase / cholinesterase / cholinesterase / brain …

CCN(CC)C(=O)c1cccc(C)c1 [DEET]
LEL (rat [1]; [24]): 250 mg/kg/day
LOAEL (rat [1]; [24]): > 250 mg/kg/day
NEL (rat [1]; [24]): 100 mg/kg/day
NOAEL (rat [1]; [24]): ≥ 250 mg/kg/day
LEL (rat [1]; [25]): 25 mg/kg/day
LOAEL (rat [1]; [25]): 25 mg/kg/day
NEL (rat [1]; [25]): < 25 mg/kg/day
NOAEL (rat [1]; [25]): < 25 mg/kg/day
LEL (dog [2]): 400 mg/kg/day
LOAEL (dog [2]): 400 mg/kg/day
NEL (dog [2]): 100 mg/kg/day
NOAEL (dog [2]): 100 mg/kg/day
LEL (rat [3]): 250 mg/kg/day
LOAEL (rat [3]): > 250 mg/kg/day
NEL (rat [3]): 100 mg/kg/day
NOAEL (rat [3]): ≥ 250 mg/kg/day
LEL (rat [4]; [26]): 750 mg/kg/day
LOAEL (rat [4]; [26]): 750 mg/kg/day
NEL (rat [4]; [26]): 250 mg/kg/day
NOAEL (rat [4]; [26]): 250 mg/kg/day
LEL (rat [4]; [27]): 750 mg/kg/day
LOAEL (rat [4]; [27]): 750 mg/kg/day
NEL (rat [4]; [27]): 250 mg/kg/day
NOAEL (rat [4]; [27]): 250 mg/kg/day
LEL (hamster; [28]): 304 mg/kg/day
LOAEL (hamster; [28]): 304 mg/kg/day
NEL (hamster; [29]): 61 mg/kg/day
NOAEL (hamster; [29]): 61 mg/kg/day
LEL (rat [5]): 100 mg/kg/day
LOAEL (rat [5]): 100 mg/kg/day
NEL (rat [5]): < 100 mg/kg/day
NOAEL (rat [5]): < 100 mg/kg/day
LEL (mouse [6]): 1000 mg/kg/day
LOAEL (mouse [6]): 1000 mg/kg/day
NEL (mouse [6]): 500 mg/kg/day
NOAEL (mouse [6]): 500 mg/kg/day
LEL (rat [7]): 400 mg/kg/day
LOAEL (rat [7]): 400 mg/kg/day
NEL (rat [7]): 100 mg/kg/day
NOAEL (rat [7]): 100 mg/kg/day

FC(F)(F)c1cccc(C2=CCN(CCc3ccc4ccncc4c3)CC2)c1
LEL (dog [8]): 0.01 mg/kg/day
LOAEL (dog [8]): > 0.25 mg/kg/day
NEL (dog [8]): < 0.01 mg/kg/day
NOAEL (dog [8]): ≥ 0.25 mg/kg/day
LEL (rabbit [9]; [30]): 0.01 mg/kg/day
NEL (rabbit [9]; [30]): < 0.01 mg/kg/day
LOAEL (rabbit [9]; [31]): > 0.05 mg/kg/day
NOAEL (rabbit [9]; [31]): ≥ 0.05 mg/kg/day
LEL (rat [10]; [32]): 1 mg/kg/day
LOAEL (rat [10]; [32]): > 7.5 mg/kg/day
NEL (rat [10]; [32]): 0.1 mg/kg/day
NOAEL (rat [10]; [32]): ≥ 7.5 mg/kg/day
LEL (rat [10]; [33]): 0.1 mg/kg/day
LOAEL (rat [10]; [33]): 0.1 mg/kg/day
NEL (rat [10]; [33]): < 0.1 mg/kg/day
NOAEL (rat [10]; [33]): < 0.1 mg/kg/day
LOAEL (rat [11]; [34]): > 7.5 mg/kg/day
NOAEL (rat [11]; [34]): ≥ 7.5 mg/kg/day
LEL (rat [11]; [35]): 0.1 mg/kg/day
NEL (rat [11]; [35]): < 0.1 mg/kg/day
LEL (dog [12]): 0.01 mg/kg/day
LOAEL (dog [12]): 0.01 mg/kg/day
NEL (dog [12]): < 0.01 mg/kg/day
NOAEL (dog [12]): < 0.01 mg/kg/day
LOAEL (rat [13]; [36]): > 7.5 mg/kg/day
NOAEL (rat [13]; [36]): ≥ 7.5 mg/kg/day
LEL (rat [13]; [32]): 0.1 mg/kg/day
NEL (rat [13]; [32]): < 0.1 mg/kg/day
LEL (rat [13]; group: parental, systemic / in life observation / body weight / body weight gain): 1 mg/kg/day
LOAEL (rat [13]; [37]): > 7.5 mg/kg/day
NEL (rat [13]; [37]): 0.1 mg/kg/day
NOAEL (rat [13]; [37]): ≥ 7.5 mg/kg/day
LEL (rat [14]; [32]): 0.1 mg/kg/day
LOAEL (rat [14]; [32]): 0.1 mg/kg/day
NEL (rat [14]; [32]): < 0.1 mg/kg/day
NOAEL (rat [14]; [32]): < 0.1 mg/kg/day
LEL (rat [14]; [38]): 0.1 mg/kg/day
LOAEL (rat [14]; [38]): 0.1 mg/kg/day
NEL (rat [14]; [38]): < 0.1 mg/kg/day
NOAEL (rat [14]; [38]): < 0.1 mg/kg/day
LEL (rat [15]; [26]): 7.5 mg/kg/day
LOAEL (rat [15]; [26]): 7.5 mg/kg/day
NEL (rat [15]; [26]): 2.5 mg/kg/day
NOAEL (rat [15]; [26]): 2.5 mg/kg/day
LEL (rat [15]; [39]): 0.75 mg/kg/day
LOAEL (rat [15]; [39]): > 7.5 mg/kg/day
NEL (rat [15]; [39]): < 0.75 mg/kg/day
NOAEL (rat [15]; [39]): ≥ 7.5 mg/kg/day
LEL (rat [16]; [40]): 7.5 mg/kg/day
LOAEL (rat [16]; [40]): 7.5 mg/kg/day
NEL (rat [16]; [40]): 2.5 mg/kg/day
NOAEL (rat [16]; [40]): 2.5 mg/kg/day
LEL (rat [16]; [39]): 0.75 mg/kg/day
LOAEL (rat [16]; [39]): > 7.5 mg/kg/day
NEL (rat [16]; [39]): < 0.75 mg/kg/day
NOAEL (rat [16]; [39]): ≥ 7.5 mg/kg/day
LEL (rat [17]; [41]): 7.5 mg/kg/day
LOAEL (rat [17]; [41]): > 7.5 mg/kg/day
NEL (rat [17]; [41]): 1 mg/kg/day
NOAEL (rat [17]; [41]): ≥ 7.5 mg/kg/day
LEL (rat [17]; [42]): 0.1 mg/kg/day
LOAEL (rat [17]; [42]): 0.1 mg/kg/day
NEL (rat [17]; [42]): < 0.1 mg/kg/day
NOAEL (rat [17]; [42]): < 0.1 mg/kg/day
LEL (rabbit [18]): 0.01 mg/kg/day
LOAEL (rabbit [18]): > 0.05 mg/kg/day
NEL (rabbit [18]): < 0.01 mg/kg/day
NOAEL (rabbit [18]): ≥ 0.05 mg/kg/day

CCOP(=S)(OCC)SCSP(=S)(OCC)OCC [Ethion]
LEL (rabbit [19]; [43]): 9.6 mg/kg/day
LOAEL (rabbit [19]; [43]): 9.6 mg/kg/day
NEL (rabbit [19]; [43]): 2.4 mg/kg/day
NOAEL (rabbit [19]; [43]): 2.4 mg/kg/day
LEL (rabbit [19]; [44]): 2.4 mg/kg/day
LOAEL (rabbit [19]; [44]): 2.4 mg/kg/day
NEL (rabbit [19]; [45]): 0.6 mg/kg/day
NOAEL (rabbit [19]; [45]): 0.6 mg/kg/day
LEL (dog [20]): 0.403 mg/kg/day
LOAEL (dog [20]): 0.403 mg/kg/day
NEL (dog [20]): 0.123 mg/kg/day
NOAEL (dog [20]): 0.123 mg/kg/day
LEL (rat [21]; [46]): 2.5 mg/kg/day
LOAEL (rat [21]; [46]): 2.5 mg/kg/day
NEL (rat [21]; [46]): 0.6 mg/kg/day
NOAEL (rat [21]; [46]): 0.6 mg/kg/day
LEL (rat [21]; [47]): 2.5 mg/kg/day
LOAEL (rat [21]; [47]): 2.5 mg/kg/day
NEL (rat [21]; [47]): 0.6 mg/kg/day
NOAEL (rat [21]; [47]): 0.6 mg/kg/day
LEL (dog [22]; [48]): 0.049 mg/kg/day
LOAEL (dog [22]; [48]): 0.049 mg/kg/day
NEL (dog [22]; [49]): 0.026 mg/kg/day
NOAEL (dog [22]; [49]): 0.026 mg/kg/day
LEL (mouse [23]): 1.2 mg/kg/day
LOAEL (mouse [23]): > 1.2 mg/kg/day
NEL (mouse [23]): 0.22 mg/kg/day
NOAEL (mouse [23]): ≥ 1.2 mg/kg/day
